Measured values: patent US20130183686A1, “METHOD OF EVALUATING IMMUNOSUPPRESSION” (priority 2008, published 2013)
“Also recorded” adds a separate entry of the source.

How the values were obtained:
Assay type in all cases: cell-based, human
NFAT [1] = experiment: PMA/Ionomycin-induced NFAT translocation in healthy donor cells, imaging flow cytometry
NFkB = experiment: PMA/Ionomycin-induced NFkB activation in healthy donor CD4+ cells in plasma, imaging flow cytometry; conditions: increasing concentrations of Tacrolimus (FIG. 6)
NFAT [2] = experiment: PMA/Ion-induced NFAT activation potential in CD4+ and CD8+ T cells of stable transplant recipients receiving tacrolimus
Method: Protocol to measure the NF-κB and/or NFAT activation potential in immunophenotypically defined cell populations: Obtain peripheral blood sample in sodium heparin container. Keep PBL sample at ambient room temperature. Prepare sufficient number of 15 mL polypropylene tubes (10-9152N, Niagara Scientific, Lancaster, N.Y.) to accommodate the number of variables to be tested. One tube is needed for the unstimulated control, one for the unstimulated cell line control (HL60 […] or Jurkat) and two (1 for HL60 and 1 for patient sample) for each of the stimulation conditions to be tested (e.g. PMA/Ion, TNFα, CD3/CD28, etc.). Aliquot 500 μl whole blood per tube for the patient samples. For cell line controls, add enough volume from culture flask to yield 2×10^6 cells/tube. […]
Cell line controls are washed in 1× Phosphate Buffered saline solution (1×PBS) (Mediatech, Herndon, Va.), and then fixed by adding 1 ml of a 4% solution of methanol free Formaldehyde (Polysciences, Warrington, Pa.) at room temperature for 10 minutes. Cells are washed twice in 1×PBS, spin, and resuspend cell pellets in residual volume (they are now ready to be probed for NF-κB and/or NFAT and are left at room temperature until whole blood samples are ready). […] Cells are now ready to be probed for NF-κB and/or NFAT. […] Samples are then washed in 1×PBS and are ready to be run on the imaging cell sorting machine. […]

NFAT1 = experiment: PMA/Ionomycin-induced NFAT1 translocation in Jurkat cells incubated in patient plasma obtained after in vivo tacrolimus administration; conditions: patient plasma obtained between 1 h and 12 h after tacrolimus administration (FIGS. 8 and 9)

**Q.** With C=CC[C@@H]1/C=C(\C)C[C@H](C)C[C@H](OC)[C@H]2O[C@@](O)(C(=O)C(=O)N3CCCC[C@H]3C(=O)O[C@H](/C(C)=C/[C@@H]3CC[C@@H](O)[C@H](OC)C3)[C@H](C)[C@@H](O)CC1=O)[C@H](C)C[C@@H]2OC [tacrolimus] as the compound, how does the NFAT translocation potential (NFAT [1]; healthy donor CD4+ cells in plasma, increasing concentrations of Tacrolimus (FIG. 6)) read?
**A.** Its NFAT translocation potential is “dose-dependent decrease”.

**Q.** What about the “inhibition of PMA/Ion-induced NFAT translocation” value (NFAT [1]; healthy donor peripheral blood, CD4+ cells in culture medium, increasing concentration of tacrolimus (FIG. 5)) of the same compound?
**A.** The value was “dose-dependent inhibition”.

**Q.** What about the “correlation between extracellular concentrations and PMA/Ionomycin-induced NFAT1 activation potential” value (NFAT [1]; in vitro, spiked into tissue culture media, plasma or whole blood, naive cells (Jurkat or healthy donor CD4+ or CD8+ T cells)) of the same compound?
**A.** The value was “a strong correlation is observed”.

**Q.** And the “inhibitory effect on NFkB activation” value (NFkB)?
**A.** The value was “less pronounced for NFkB but can be seen at higher drug concentrations”.

**Q.** What about the “correlation between trough tacrolimus levels and NFAT activation potential” value (NFAT [2]; CD4+ and CD8+ cells of transplant recipients chronically exposed to tacrolimus) of the same compound?
**A.** The value was “Neither for CD4+ nor CD8+ cells was a correlation found; also recorded: no statistically significant dose-response relationship was observed”.

**Q.** What about the “difference in NFAT activation potential before (0 h) and after (4 h) a dose” value (NFAT [2]; CD4+ or CD8+ cells of stable transplant recipients) of the same compound?
**A.** The value was “did not determine a significant difference”.

**Q.** What about the “inhibitory effect on NFAT in cells naive to previous tacrolimus exposure” value (NFAT1) of the same compound?
**A.** The value was “closely mirrors that of the expected plasma levels; also recorded: a good dose-response was observed”.
